# Source: patent US12479847B2 (DANA-FARBER CANCER INSTITUTE, INC., priority 2019, dated 2025)
# Read-outs that look alike come from different tables or passages of the source.
# Legend:
# Test in all cases: KINOMEscan (ScanMAX) kinase profiling
# Assay type in all cases: binding
# panel of 468 kinases [1] = target: T1, panel of 468 kinases (Homo sapiens, UniProt P30291); details: WEE1; 1 μM; read-out: % control
# T1 construct: purchased KINOMEscan (ScanMAX) service
# panel of 468 kinases [2] = target: T2, panel of 468 kinases (Homo sapiens, UniProt P0C264); details: SgK110; 1 μM; read-out: % control
# T2 construct: purchased KINOMEscan (ScanMAX) service
# T2 sequence (P0C264 1-359): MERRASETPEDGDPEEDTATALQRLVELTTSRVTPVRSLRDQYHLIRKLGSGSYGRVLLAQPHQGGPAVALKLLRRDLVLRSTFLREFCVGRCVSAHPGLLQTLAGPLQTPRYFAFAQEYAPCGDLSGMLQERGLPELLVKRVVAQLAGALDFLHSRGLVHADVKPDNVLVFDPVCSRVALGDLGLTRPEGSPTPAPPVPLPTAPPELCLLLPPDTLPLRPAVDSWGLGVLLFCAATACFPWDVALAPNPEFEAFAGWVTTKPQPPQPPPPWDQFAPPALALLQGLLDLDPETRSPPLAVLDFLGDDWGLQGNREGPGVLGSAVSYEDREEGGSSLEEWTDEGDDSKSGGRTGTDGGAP
# panel of 468 kinases [3] = target: T3, panel of 468 kinases (Homo sapiens, UniProt P00533, L858R/T790M); details: EGFR(L858R,T790M); 1 μM; read-out: % control
# T3 construct: purchased KINOMEscan (ScanMAX) service
# panel of 468 kinases [4] = target: T4, panel of 468 kinases (Homo sapiens, UniProt Q9BZL6); details: PRKD2; 1 μM; read-out: % control
# T4 construct: purchased KINOMEscan (ScanMAX) service
# T4 sequence (Q9BZL6 1-878): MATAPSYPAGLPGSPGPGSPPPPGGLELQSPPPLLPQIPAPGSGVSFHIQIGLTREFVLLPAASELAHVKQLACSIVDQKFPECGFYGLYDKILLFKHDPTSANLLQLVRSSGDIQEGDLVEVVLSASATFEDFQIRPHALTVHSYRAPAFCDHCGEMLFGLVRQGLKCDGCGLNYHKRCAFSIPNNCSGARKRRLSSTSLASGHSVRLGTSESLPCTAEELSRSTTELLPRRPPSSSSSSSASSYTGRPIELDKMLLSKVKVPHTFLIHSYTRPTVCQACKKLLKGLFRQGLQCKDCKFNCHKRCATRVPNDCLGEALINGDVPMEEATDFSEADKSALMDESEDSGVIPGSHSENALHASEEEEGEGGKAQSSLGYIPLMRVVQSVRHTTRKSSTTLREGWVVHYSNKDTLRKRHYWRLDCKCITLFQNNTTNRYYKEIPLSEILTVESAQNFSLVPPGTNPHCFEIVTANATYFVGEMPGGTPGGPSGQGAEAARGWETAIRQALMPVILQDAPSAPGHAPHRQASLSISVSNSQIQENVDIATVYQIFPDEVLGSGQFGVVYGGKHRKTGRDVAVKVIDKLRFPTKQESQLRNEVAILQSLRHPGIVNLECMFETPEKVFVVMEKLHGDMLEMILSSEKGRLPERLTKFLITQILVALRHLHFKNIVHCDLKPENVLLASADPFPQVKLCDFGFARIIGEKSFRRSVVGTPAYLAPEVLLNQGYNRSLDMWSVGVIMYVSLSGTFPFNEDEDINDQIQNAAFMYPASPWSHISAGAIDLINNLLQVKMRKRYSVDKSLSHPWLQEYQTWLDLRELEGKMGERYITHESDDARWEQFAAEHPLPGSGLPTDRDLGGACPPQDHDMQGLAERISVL
# panel of 468 kinases [5] = target: T5, panel of 468 kinases (Homo sapiens, UniProt Q9Y2I7); details: PIKFYVE; 1 μM; read-out: % control
# T5 construct: purchased KINOMEscan (ScanMAX) service
# panel of 468 kinases [6] = target: T6, panel of 468 kinases (Homo sapiens, UniProt O75914); details: PAK3; 1 μM; read-out: % control
# T6 construct: purchased KINOMEscan (ScanMAX) service
# panel of 468 kinases [7] = target: T7, panel of 468 kinases (Homo sapiens, UniProt Q04759); details: PRKCQ; 1 μM; read-out: % control
# T7 construct: purchased KINOMEscan (ScanMAX) service
# panel of 468 kinases [8] = target: T8, panel of 468 kinases (Homo sapiens, UniProt P10721); details: 1 μM, read-out: % control
# T8 construct: purchased KINOMEscan (ScanMAX) service
# panel of 468 kinases [9] = target: T9, panel of 468 kinases (Homo sapiens, UniProt P07947); details: YES; 1 μM; read-out: % control
# T9 construct: purchased KINOMEscan (ScanMAX) service
# panel of 468 kinases [10] = target: T10, panel of 468 kinases (Homo sapiens, UniProt Q15208); details: NDR1; 1 μM; read-out: % control
# T10 construct: purchased KINOMEscan (ScanMAX) service
# panel of 468 kinases [11] = target: T11, panel of 468 kinases (Homo sapiens, UniProt Q13555); details: CAMK2G; 1 μM; read-out: % control
# T11 construct: purchased KINOMEscan (ScanMAX) service
# panel of 468 kinases [12] = target: T12, panel of 468 kinases (Homo sapiens, UniProt Q9P2K8, S808G); details: GCN2(Kin.Dom.2,S808G); 1 μM; read-out: % control
# T12 construct: purchased KINOMEscan (ScanMAX) service
# panel of 468 kinases [13] = target: T13, panel of 468 kinases (Homo sapiens, UniProt P45983); details: JNK1; 1 μM; read-out: % control
# T13 construct: purchased KINOMEscan (ScanMAX) service
# panel of 468 kinases [14] = target: T14, panel of 468 kinases (Homo sapiens, UniProt Q00526); details: CDK3; 1 μM; read-out: % control
# T14 construct: purchased KINOMEscan (ScanMAX) service
# T14 sequence (Q00526 whole entry): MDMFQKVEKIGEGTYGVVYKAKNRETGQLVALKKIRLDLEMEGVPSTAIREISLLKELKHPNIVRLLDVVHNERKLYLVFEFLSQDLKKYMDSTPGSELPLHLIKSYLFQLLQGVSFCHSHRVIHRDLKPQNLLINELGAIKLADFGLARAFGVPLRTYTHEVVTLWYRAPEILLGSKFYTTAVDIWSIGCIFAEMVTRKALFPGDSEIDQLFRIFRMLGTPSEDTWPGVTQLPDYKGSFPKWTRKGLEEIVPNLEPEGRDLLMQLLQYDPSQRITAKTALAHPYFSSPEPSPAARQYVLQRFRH
# T13 sequence (P45983 whole entry): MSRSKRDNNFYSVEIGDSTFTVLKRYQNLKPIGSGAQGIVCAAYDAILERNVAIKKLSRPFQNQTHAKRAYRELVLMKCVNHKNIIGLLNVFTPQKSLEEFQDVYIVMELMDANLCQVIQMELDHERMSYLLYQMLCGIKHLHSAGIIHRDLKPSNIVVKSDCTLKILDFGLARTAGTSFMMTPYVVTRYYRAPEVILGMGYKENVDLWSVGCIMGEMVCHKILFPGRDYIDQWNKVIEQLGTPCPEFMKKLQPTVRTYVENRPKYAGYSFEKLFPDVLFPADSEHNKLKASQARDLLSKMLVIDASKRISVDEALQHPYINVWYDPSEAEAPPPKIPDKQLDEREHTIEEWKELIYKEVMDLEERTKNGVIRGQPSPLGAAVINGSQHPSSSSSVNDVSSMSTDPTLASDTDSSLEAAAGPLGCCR
# T1 sequence (P30291 whole entry): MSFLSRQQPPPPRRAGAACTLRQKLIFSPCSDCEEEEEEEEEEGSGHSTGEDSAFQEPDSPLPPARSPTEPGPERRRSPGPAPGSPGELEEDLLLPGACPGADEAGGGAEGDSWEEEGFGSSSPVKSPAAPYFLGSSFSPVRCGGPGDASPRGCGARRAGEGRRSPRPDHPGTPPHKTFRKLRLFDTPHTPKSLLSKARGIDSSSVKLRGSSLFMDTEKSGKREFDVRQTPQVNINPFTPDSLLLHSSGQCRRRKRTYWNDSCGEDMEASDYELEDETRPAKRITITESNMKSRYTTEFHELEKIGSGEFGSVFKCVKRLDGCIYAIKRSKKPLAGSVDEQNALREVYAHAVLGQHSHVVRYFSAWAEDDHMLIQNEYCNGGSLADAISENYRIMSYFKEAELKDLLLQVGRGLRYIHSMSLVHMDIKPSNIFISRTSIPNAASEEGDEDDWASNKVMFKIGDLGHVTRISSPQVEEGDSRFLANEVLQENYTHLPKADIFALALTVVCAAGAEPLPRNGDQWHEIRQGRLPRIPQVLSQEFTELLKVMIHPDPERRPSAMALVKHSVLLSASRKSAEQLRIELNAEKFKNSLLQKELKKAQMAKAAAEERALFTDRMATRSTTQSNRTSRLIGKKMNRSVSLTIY
# T5 sequence (Q9Y2I7 whole entry): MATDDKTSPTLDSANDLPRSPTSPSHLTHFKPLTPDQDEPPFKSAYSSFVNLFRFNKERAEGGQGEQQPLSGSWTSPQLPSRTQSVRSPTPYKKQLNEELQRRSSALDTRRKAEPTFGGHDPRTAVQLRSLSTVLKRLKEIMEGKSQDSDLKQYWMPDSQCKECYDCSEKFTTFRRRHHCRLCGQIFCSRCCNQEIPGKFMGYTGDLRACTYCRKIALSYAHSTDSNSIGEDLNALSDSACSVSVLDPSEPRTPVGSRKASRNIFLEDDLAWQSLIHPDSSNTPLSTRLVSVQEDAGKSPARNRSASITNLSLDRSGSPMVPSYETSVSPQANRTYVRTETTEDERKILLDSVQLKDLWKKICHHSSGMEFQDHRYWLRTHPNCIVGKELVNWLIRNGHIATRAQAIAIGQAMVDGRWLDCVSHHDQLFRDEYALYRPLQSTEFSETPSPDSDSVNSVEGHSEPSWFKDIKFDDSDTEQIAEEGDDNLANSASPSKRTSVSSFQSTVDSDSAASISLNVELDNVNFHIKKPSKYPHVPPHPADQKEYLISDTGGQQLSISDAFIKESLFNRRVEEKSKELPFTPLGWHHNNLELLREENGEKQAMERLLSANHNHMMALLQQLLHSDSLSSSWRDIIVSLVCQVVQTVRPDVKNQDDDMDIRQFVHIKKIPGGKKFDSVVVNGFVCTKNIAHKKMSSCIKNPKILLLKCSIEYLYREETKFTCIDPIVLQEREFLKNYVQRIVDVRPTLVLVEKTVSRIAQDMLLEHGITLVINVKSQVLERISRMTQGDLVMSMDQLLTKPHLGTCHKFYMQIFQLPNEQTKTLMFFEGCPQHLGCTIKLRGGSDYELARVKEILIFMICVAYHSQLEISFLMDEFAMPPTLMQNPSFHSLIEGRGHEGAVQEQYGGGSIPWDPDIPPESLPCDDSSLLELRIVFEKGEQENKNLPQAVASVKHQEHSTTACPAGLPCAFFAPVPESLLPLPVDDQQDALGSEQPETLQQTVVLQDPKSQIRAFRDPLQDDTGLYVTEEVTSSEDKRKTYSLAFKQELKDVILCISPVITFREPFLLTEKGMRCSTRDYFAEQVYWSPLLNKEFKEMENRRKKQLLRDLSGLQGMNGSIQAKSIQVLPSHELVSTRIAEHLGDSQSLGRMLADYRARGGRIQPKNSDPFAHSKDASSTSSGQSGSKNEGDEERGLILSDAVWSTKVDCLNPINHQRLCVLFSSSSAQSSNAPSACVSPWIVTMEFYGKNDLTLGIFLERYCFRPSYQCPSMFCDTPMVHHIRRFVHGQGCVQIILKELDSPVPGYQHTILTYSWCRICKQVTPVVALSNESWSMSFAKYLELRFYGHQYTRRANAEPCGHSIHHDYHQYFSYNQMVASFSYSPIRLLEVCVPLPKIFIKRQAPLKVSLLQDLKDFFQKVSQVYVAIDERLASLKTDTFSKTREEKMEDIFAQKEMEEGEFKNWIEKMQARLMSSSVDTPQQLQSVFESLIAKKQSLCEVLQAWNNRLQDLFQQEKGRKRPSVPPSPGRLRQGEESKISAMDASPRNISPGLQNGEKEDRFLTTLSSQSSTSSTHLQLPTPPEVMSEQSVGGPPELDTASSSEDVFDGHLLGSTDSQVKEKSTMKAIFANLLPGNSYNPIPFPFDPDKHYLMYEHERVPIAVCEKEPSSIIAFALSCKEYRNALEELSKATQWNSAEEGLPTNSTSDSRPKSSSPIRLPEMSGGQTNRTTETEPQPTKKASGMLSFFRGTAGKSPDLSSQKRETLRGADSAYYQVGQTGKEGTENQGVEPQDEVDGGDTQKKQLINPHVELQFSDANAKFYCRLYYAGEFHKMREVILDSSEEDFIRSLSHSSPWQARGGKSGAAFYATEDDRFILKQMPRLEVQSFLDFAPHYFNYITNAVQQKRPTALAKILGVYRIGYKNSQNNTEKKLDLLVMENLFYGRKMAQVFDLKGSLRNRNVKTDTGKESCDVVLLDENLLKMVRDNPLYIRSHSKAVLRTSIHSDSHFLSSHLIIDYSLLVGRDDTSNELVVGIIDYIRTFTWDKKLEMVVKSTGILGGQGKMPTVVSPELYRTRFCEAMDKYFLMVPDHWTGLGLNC
# T10 sequence (Q15208 whole entry): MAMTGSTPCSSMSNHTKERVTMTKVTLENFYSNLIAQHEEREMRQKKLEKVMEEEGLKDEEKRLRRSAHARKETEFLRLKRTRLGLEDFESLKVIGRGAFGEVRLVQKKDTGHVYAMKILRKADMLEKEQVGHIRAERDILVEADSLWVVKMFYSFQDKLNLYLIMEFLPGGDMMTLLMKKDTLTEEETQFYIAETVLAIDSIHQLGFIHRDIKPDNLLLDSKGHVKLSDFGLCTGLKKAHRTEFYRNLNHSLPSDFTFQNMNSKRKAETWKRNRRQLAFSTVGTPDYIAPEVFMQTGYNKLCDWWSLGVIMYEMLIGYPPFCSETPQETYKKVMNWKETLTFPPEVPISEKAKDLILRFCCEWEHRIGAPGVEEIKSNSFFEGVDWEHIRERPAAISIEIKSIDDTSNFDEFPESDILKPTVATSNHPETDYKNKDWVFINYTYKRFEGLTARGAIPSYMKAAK
# T8 sequence (P10721 26-976): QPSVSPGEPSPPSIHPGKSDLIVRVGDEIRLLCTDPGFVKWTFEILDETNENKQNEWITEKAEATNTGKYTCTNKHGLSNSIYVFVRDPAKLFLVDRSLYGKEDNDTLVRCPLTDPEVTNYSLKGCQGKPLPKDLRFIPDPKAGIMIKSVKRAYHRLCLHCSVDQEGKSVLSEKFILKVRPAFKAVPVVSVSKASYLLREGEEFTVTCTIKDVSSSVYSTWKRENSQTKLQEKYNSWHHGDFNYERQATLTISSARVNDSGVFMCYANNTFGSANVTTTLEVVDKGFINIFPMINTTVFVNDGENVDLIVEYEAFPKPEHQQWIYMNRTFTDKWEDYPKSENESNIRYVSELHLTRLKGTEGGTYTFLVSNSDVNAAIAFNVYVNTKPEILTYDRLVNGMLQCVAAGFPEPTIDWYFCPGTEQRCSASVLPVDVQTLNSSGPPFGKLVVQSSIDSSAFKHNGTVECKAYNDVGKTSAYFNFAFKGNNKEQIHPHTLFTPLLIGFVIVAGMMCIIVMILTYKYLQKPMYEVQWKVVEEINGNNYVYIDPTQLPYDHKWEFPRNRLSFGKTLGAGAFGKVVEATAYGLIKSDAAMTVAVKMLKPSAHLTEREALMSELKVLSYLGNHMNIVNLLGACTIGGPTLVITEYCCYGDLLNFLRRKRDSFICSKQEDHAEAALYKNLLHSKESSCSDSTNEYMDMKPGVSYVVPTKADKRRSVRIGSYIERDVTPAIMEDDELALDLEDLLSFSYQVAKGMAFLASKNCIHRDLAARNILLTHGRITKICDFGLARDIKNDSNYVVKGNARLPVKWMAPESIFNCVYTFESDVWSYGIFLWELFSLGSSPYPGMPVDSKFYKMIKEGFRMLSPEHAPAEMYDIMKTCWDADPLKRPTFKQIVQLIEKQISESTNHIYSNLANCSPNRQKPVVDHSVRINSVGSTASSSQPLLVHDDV
SMILES,remaining binding at 1 µM (panel of 468 kinases [1]),remaining binding at 1 µM (panel of 468 kinases [2]),remaining binding at 1 µM (panel of 468 kinases [3]),remaining binding at 1 µM (panel of 468 kinases [4]),remaining binding at 1 µM (panel of 468 kinases [5]),remaining binding at 1 µM (panel of 468 kinases [6]),remaining binding at 1 µM (panel of 468 kinases [7]),remaining binding at 1 µM (panel of 468 kinases [8]; KIT-autoinhibited),remaining binding at 1 µM (panel of 468 kinases [8]; KIT),remaining binding at 1 µM (panel of 468 kinases [9]),remaining binding at 1 µM (panel of 468 kinases [10]),remaining binding at 1 µM (panel of 468 kinases [11]),remaining binding at 1 µM (panel of 468 kinases [12]),remaining binding at 1 µM (panel of 468 kinases [13]),remaining binding at 1 µM (panel of 468 kinases [14])
"CNc1nc(Nc2ccc(C(=O)N3CCC(N4CCOCC4)CC3)c3c2OCO3)nc2[nH]cc(Cl)c12 [Compound 75, (7-((5-chloro-4-(methylamino)-7H-pyrrolo[2,3-d]pyrimidin-2-yl)amino)benzo[d][1,3]dioxol-4-yl)(4-morpholinopiperidin-1-yl)methanone]",95%,100%,45%,2.2%,72%,97%,100%,68%,65%,100%,90%,100%,31%,0.1%,98%
"CNc1nc(Nc2ccc(S(=O)(=O)N3CCC(N4CCOCC4)CC3)cc2OC)nc2[nH]cc(Cl)c12 [Compound 12, 5-chloro-N2-(2-methoxy-4-((4-morpholinopiperidin-1-yl)sulfonyl)phenyl)-N4-methyl-7H-pyrrolo[2,3-d]pyrimidine-2,4-diamine]",78%,92%,66%,37%,64%,100%,100%,95%,100%,100%,83%,100%,88%,11%,86%
"CNc1nc(Nc2ccc(P3(=O)CCN(C4CCOCC4)CC3)cc2OC)nc2[nH]cc(Cl)c12 [Compound 77, 4-(4-((5-chloro-4-(methylamino)-7H-pyrrolo[2,3-d]pyrimidin-2-yl)amino)-3-methoxyphenyl)-1-(tetrahydro-2H-pyran-4-yl)-1,4-azaphosphinane 4-oxide]",93%,98%,42%,14%,70%,91%,95%,93%,99%,100%,83%,97%,78%,0.65%,95%
